Measured values: US20260374766A1, “METHODS FOR TREATING CANCER” (Antares Therapeutics, Inc., priority 2022, published 2026)
Read-outs that look alike come from different tables or passages of the source.

Columns and labels:
[1] = biological target: T1, p53 Y220C mutant protein (amino acid residues 94-293) (Homo sapiens, UniProt P04637, Y220C); assay: Thermal Shift Assay (TSA), dTM; format: binding; details: for ΔTm at 100 µM: 100 uM compound, read-out: TSA P53 Y220C dTM (100 uM); for ΔTm at 10 µM: 10 uM compound
T1 construct: p53 Y220C mutant protein (amino acid residues 94-293)
Method in brief: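 First, the mutant DNA-binding domain (5 μM) was preincubated 3 hours at 20 °C with compound at 10 μM or 100 μM. Next, the sample was heated from 30 °C to 50 °C at 0.03 °C/second in the presence of Sypro Orange. Finally, TM was obtained from a two-state Boltzmann fit.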

[2] = biological target: p53 Y220C (Homo sapiens, UniProt P04637, Y220C); assay: Luciferase Reporter Assay (Luc), p53 response element, NClH1299 cells with inducible p53 Y220C; format: cell-based; details: luciferase reporter, NClH1299 inducible p53 Y220C, 6 hour; for AC50: read-out: Luc P53 Y220C AC50
Method in brief: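 Luciferase activity is measured directly after One-Glo addition and a 5-minute room-temperature shake. Before that, cells plated at 5,000 per well receive doxycycline at 0.5 ug/mL for 24 hours, followed by compound for 6 hours.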

[3] = tested on: NUGC3 p53 Y220C; assay: Cell Proliferation Assay (CellTiter-Glo, CTG), NUGC3 p53 Y220C; format: cell-based; details: Homo sapiens, NUGC-3, 120 h, CellTiter-Glo, 5 days
Method in brief: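 NClH1299 lines stably transduced with Tet-inducible p53 Y220C or R273H, plus NUGC3, were treated with compound for 5 days at 250-500 cells/well. IC50 derived from CellTiter-Glo luminescent signal after 10 min room-temperature incubation.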

[4] = tested on: H1299 p53 R273H; assay: Cell Proliferation Assay (CellTiter-Glo, CTG), H1299 p53 R273H (NClH1299-inducible p53 R273H); format: cell-based; details: Homo sapiens, NCI-H1299, 120 h, CellTiter-Glo, 5 days
Method in brief: (§1)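 Tet-One inducible p53 Y220C or R273H constructs were stably introduced into NCI-H1299 by lentiviral transduction; NUGC3 was used as is. Cells (250-500 per well) were exposed to compound for 5 days, then CellTiter-Glo was added for 10 min at room temperature and IC50 was calculated from luminescence.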

[5] = biological target: T1, p53 Y220C mutant protein (amino acid residues 94-293); assay: Surface Plasmon Resonance (SPR) assay, Kd_kinetic; format: binding; details: SPR, p53 Y220C, read-out: SPR P53 Y220C KD kinetic
Method in brief: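 Kd values come from fitting sensorgrams to a 1:1 binding model. Sensorgrams were recorded on a Biacore 8K at 16 or 20 °C in pH 7.5 Tris buffer with 100 mM NaCl, 1 mM DTT, detergents and 1% DMSO.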

[6] = tested on: H1299 p53 Y220C; assay: Cell Proliferation Assay (CellTiter-Glo, CTG), H1299 p53 Y220C (NClH1299-inducible p53 Y220C); format: cell-based; details: Homo sapiens, NCI-H1299, 120 h, CellTiter-Glo, 5 days
Method in brief: as §1

[7] = 10 uM tool compound as positive control
[8] = thermal shift, read-out: TSA P53 Y220C dTM (10 uM)
[9] = p53 Y220C, read-out: TSA P53 Y220C dTM
[10] = NClH1299-inducible p53 R273H cells
[11] = NClH1299-inducible p53 Y220C cells

Row | Compound | ΔTm at 100 µM ([1]; thermal shift) [°C] | Emax [2, 7] [%] | AC50 [2] [nM] | IC50 ([3]; NUGC3 p53 Y220C) [nM] | IC50 ([4]; H1299 p53 R273H) [nM] | Kd ([5]; kinetic KD) [nM] | IC50 ([6]; H1299 p53 Y220C) [nM] | ΔTm at 10 µM [1, 8] [°C] | ΔTm at 10 µM [1, 9] [°C] | AC50 ([2]; AC50) [nM] | Emax ([2]; Emax) [%] | IC50 ([3]; NUGC3 cells) [nM] | IC50 [4, 10] [nM] | Kd [5] [nM] | IC50 [6, 11] [nM]
1 | CN1CC[C@@H](Nc2cccn3c(CC(F)(F)F)c(C#C[C@@H](O)c4ccccc4)nc23)[C@@H](F)C1 [Example 72, (1S)-3-(8-{[(3S,4R)-3-fluoro-1-methylpiperidin-4-yl]amino}-3-(2,2,2-trifluoroethyl)imidazo[1,2-a]pyridin-2-yl)-1-phenylprop-2-yn-1-ol] | 1 to 5 | < 70 | > 3000 | 750 to 1500 | < 5000 | > 1000 | 1500 to 3000 |  |  |  |  |  |  |  | 
2 | COc1cc(C(=O)N2CCC2)ccc1NCC#Cc1nc2c(N[C@@H]3CCN(C)C[C@@H]3F)cccn2c1SC(F)(F)F [Example 87, (3S,4R)—N-[2-(3-{[4-(azetidine-1-carbonyl)-2-methoxyphenyl]amino}prop-1-yn-1-yl)-3-[(trifluoromethyl)sulfanyl]imidazo[1,2-a]pyridin-8-yl]-3-fluoro-1-methylpiperidin-4-amine] | ≥ 10 | 80 to 90 | < 750 | < 750 | 8000 to 10000 | < 10 | < 750 |  |  |  |  |  |  |  | 
3 | CNC(=O)c1ccc(NCC#Cc2nc3c(N[C@@H]4CCN(C)C[C@@H]4F)cccn3c2NC)c(OC)c1 [Example 25, 4-{[3-(8-{[(3S,4R)-3-fluoro-1-methylpiperidin-4-yl]amino}-3-(methylamino)imidazo[1,2-a]pyridin-2-yl)prop-2-yn-1-yl]amino}-3-methoxy-N-methylbenzamide] | 5 to 10 | < 70 | > 3000 | > 3000 | ≥ 10000 | 100 to 1000 | > 3000 |  |  |  |  |  |  |  | 
4 | CNC(=O)c1ccc(NCC#Cc2nc3c(NC4CC5(C4)CN(CC(F)F)C5)cccn3c2SC(F)(F)F)c(OC)c1 [Example 173] | 5 to 10 | 70 to 80 | 750 to 1500 | 1500 to 3000 | 5000 to 8000 | 10 to 100 | 750 to 1500 | 5 to 10 |  |  |  |  |  |  | 
5 | CNC(=O)c1ccc(OC)c(NCC#Cc2nc3c(N[C@@H]4CCNC[C@@H]4F)cccn3c2CC(F)(F)F)c1 [Example 222] | ≥ 10 | < 70 | > 3000 | < 750 | ≥ 10000 | < 10 | 1500 to 3000 | ≥ 10 |  |  |  |  |  |  | 
6 | CNC(=O)c1ccc(NCC#Cc2nc3c(N[C@@H]4CCN(C)C[C@@H]4F)cccn3c2CC(F)(F)F)c(OCC(F)(F)F)c1 [Example 61, 4-{[3-(8-{[(3S,4R)-3-fluoro-1-methylpiperidin-4-yl]amino}-3-(2,2,2-trifluoroethyl)imidazo[1,2-a]pyridin-2-yl)prop-2-yn-1-yl]amino}-N-methyl-3-(2,2,2-trifluoroethoxy)benzamide] | 5 to 10 | 80 to 90 | 750 to 1500 | 750 to 1500 | ≥ 10000 | 10 to 100 | < 750 |  |  |  |  |  |  |  | 
7 | CNC(=O)c1ccc(NCC#Cc2cc3c(N[C@@H]4CCN(C)C[C@@H]4F)cccn3c2SC(F)F)c(OC)c1 [Example 135, 4-[(3-{3-[(difluoromethyl)sulfanyl]-8-{[(3S,4R)-3-fluoro-1-methylpiperidin-4-yl]amino}indolizin-2-yl}prop-2-yn-1-yl)amino]-3-methoxy-N-methylbenzamide] |  | > 90 | < 750 | < 750 | 8000 to 10000 | < 10 | < 750 | ≥ 10 |  |  |  |  |  |  | 
8 | CNC(=O)c1cc(NCC#Cc2nc3c(N[C@@H]4CCN(C)C[C@@H]4F)cccn3c2SC(F)(F)F)c2nccn2c1 [Example 277] |  |  |  |  |  |  |  |  | ≥ 10 | < 750 | > 90 | < 750 | ≥ 10000 | < 10 | < 750
9 | COc1cc(P(C)(C)=O)ccc1NCC#Cc1cc2c(N[C@@H]3CCN(C)C[C@@H]3F)cccn2c1SC(F)F [Example 349] |  |  |  |  |  |  |  |  | ≥ 10 | < 750 | 80 to 90 | < 750 | ≥ 10000 | < 10 | < 750
10 | CNC(=O)c1cnc(OC)c(NCC#Cc2nn3c(N[C@@H]4CCN(C)C[C@@H]4F)cccc3c2SC(F)(F)F)c1 [Example 260] |  |  |  |  |  |  |  |  | ≥ 10 | < 750 | 80 to 90 | < 750 | 8000 to 10000 | < 10 | < 750
11 | CNC(=O)c1ccc(F)c(NCC#Cc2nc3c(N[C@@H]4CCN(C)C[C@@H]4F)cccn3c2SC(F)(F)F)c1 [Example 159] |  | > 90 | < 750 | < 750 | ≥ 10000 | < 10 | < 750 | ≥ 10 |  |  |  |  |  |  | 
12 | CNC(=O)c1ccc(NCC#Cc2nc3c(N[C@@H]4CCc5nncn5C4)cccn3c2SC(F)(F)F)c(OC)c1 [Example 192] | ≥ 10 | < 70 | > 3000 | > 3000 | ≥ 10000 | < 10 | > 3000 | ≥ 10 |  |  |  |  |  |  | 
13 | CNC(=O)c1cc(F)c(OC)c(NCC#Cc2nc3c(N[C@@H]4CCN(C)C[C@@H]4F)nccn3c2SC(F)(F)F)c1 [Example 347] |  |  |  |  |  |  |  |  | ≥ 10 | < 750 | > 90 | < 750 | ≥ 10000 | < 10 | < 750
14 | COc1cc(S(C)(=O)=O)ccc1NCC#Cc1nc2c(NC3CCN(C)CC3)cc(N)cn2c1CC(F)(F)F [Example 32, 2-{3-[(4-methanesulfonyl-2-methoxyphenyl)amino]prop-1-yn-1-yl}-N8-(1-methylpiperidin-4-yl)-3-(2,2,2-trifluoroethyl) imidazo[1,2-a]pyridine-6,8-diamine] | 1 to 5 | < 70 | > 3000 | > 3000 | ≥ 10000 | < 10 | > 3000 | 1 to 5 |  |  |  |  |  |  | 
